{"source": "patent US9833497B2", "about": "“Human originated EGF domain proteins and use of the same” (CHENGDU SOURCEBIO LIMITED-LIABILITY COMPANY, priority 2013, dated 2017)", "type_in_all_cases": "cell-based", "key": {"Enterobacter cloacae": {"system": "Enterobacter cloacae", "experiment": "MIC against Gram-negative bacteria: Enterobacter cloacae", "in_short": "(§1)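 Bacteria grown in LB at 37° C with shaking to McFarland 0.5, pelleted and resuspended in fresh LB, then seeded at 5×10^5 CFU/mL per well. Purified recombinant human EGF domain proteins were two-fold serially diluted in triplicate and plates shaken at 37° C, 175 rpm. MIC is the lowest protein concentration with no bacterial growth.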"}, "E. coli DH5α": {"system": "E. coli DH5α", "experiment": "Antibacterial activity: MIC and growth curve against E. coli DH5α in 96-well plate", "details": "minimal inhibitory concentration against E. coli DH5α; 96-well plate, 5×10^5 CFU/mL, 37° C., judged after 8 h", "in_short": "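Log-phase DH5α (OD600 about 0.5, 37° C, 185 rpm in LB) was pelleted, resuspended in fresh LB and seeded at 5×10^5 CFU/mL with recombinant protein at 50, 25 and 12.5 μg/mL (two-fold series), in triplicate. Plates were shaken at 175 rpm, 37° C, and OD600 was read every 30 min. MIC was the lowest concentration with no growth.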"}, "Klebsiella pneumonia": {"system": "Klebsiella pneumonia", "experiment": "MIC against Gram-negative bacteria: Klebsiella pneumonia", "in_short": "as §1"}, "Pseudomonas aeruginosa": {"system": "Pseudomonas aeruginosa", "experiment": "MIC against Gram-negative bacteria: Pseudomonas aeruginosa", "in_short": "as §1"}, "Serratia marcescens": {"system": "Serratia marcescens", "experiment": "MIC against Gram-negative bacteria: Serratia marcescens", "in_short": "as §1"}, "Proteus vulgaris": {"system": "Proteus vulgaris", "experiment": "MIC against Gram-negative bacteria: Proteus vulgaris", "in_short": "as §1"}, "Citrobacter diversus": {"system": "Citrobacter diversus", "experiment": "MIC against Gram-negative bacteria: Citrobacter diversus", "in_short": "as §1"}, "Moraxella catarrhalis": {"system": "Moraxella catarrhalis", "experiment": "MIC against Gram-negative bacteria: Moraxella catarrhalis", "in_short": "as §1"}, "E. coli BL21": {"system": "E. coli BL21", "experiment": "MIC against Gram-negative bacteria: E. coli BL21", "in_short": "as §1"}, "Aeromonas hydrophila": {"system": "Aeromonas hydrophila", "experiment": "MIC against Gram-negative bacteria: Aeromonas hydrophila", "in_short": "as §1"}, "Proteus mirabilis": {"system": "Proteus mirabilis", "experiment": "MIC against Gram-negative bacteria: Proteus mirabilis", "in_short": "as §1"}, "[1]": {"details": "10 h cultivation at 37° C., 5×10^5 CFU/mL, two-fold serial dilution"}, "[2]": {"details": "96-well plate, 5×10^5 CFU/mL, 37° C., 10 h"}}, "data": [{"substance": "PRT1117 (EVDECASAPCLHGGSCLDGVGSFRCVCAPGYGGTRCQ; listed as Homo sapiens)", "values": [{"measurement": "MIC E. cloacae", "setting": "Enterobacter cloacae; [1]", "result": 50, "unit": "µg/mL"}, {"measurement": "MIC", "setting": "E. coli DH5α", "result": 50, "unit": "µg/mL"}, {"measurement": "MIC K. pneumonia", "setting": "Klebsiella pneumonia; [1]", "result": 12.5, "unit": "µg/mL"}, {"measurement": "MIC P. aeruginosa", "setting": "Pseudomonas aeruginosa; [1]", "result": 50, "unit": "µg/mL"}, {"measurement": "MIC S. marcescens", "setting": "Serratia marcescens; [1]", "result": 25, "unit": "µg/mL"}, {"measurement": "MIC P. vulgaris", "setting": "Proteus vulgaris; [1]", "result": 12.5, "unit": "µg/mL"}, {"measurement": "MIC C. diversus", "setting": "Citrobacter diversus; [1]", "result": 25, "unit": "µg/mL"}, {"measurement": "MIC M. catarrhalis", "setting": "Moraxella catarrhalis; [1]", "result": 12.5, "unit": "µg/mL"}, {"measurement": "MIC E. coli BL21", "setting": "E. coli BL21; [1]", "result": 12.5, "unit": "µg/mL"}, {"measurement": "MIC A. hydrophila", "setting": "Aeromonas hydrophila; [1]", "result": 12.5, "unit": "µg/mL"}, {"measurement": "MIC P. mirabilis", "setting": "Proteus mirabilis; [1]", "result": 25, "unit": "µg/mL"}]}, {"substance": "PRT924 (DVDECAMANSNPCEHAGKCVNTDGAFHCECLKGYAGPRCE; listed as Homo sapiens)", "values": [{"measurement": "MIC", "setting": "Enterobacter cloacae; E. cloacae, 10 h cultivation at 37° C.", "result": 25, "unit": "µg/mL"}, {"measurement": "MIC", "setting": "E. coli DH5α", "result": 12.5, "unit": "µg/mL"}, {"measurement": "MIC", "setting": "Klebsiella pneumonia; K. pneumonia, 10 h cultivation at 37° C.", "result": 12.5, "unit": "µg/mL"}, {"measurement": "MIC", "setting": "Pseudomonas aeruginosa; P. aeruginosa, 10 h cultivation at 37° C.", "result": 50, "unit": "µg/mL"}, {"measurement": "MIC", "setting": "Serratia marcescens; S. marcescens, 10 h cultivation at 37° C.", "result": 50, "unit": "µg/mL"}, {"measurement": "MIC", "setting": "Proteus vulgaris; P. vulgaris, 10 h cultivation at 37° C.", "result": 12.5, "unit": "µg/mL"}, {"measurement": "MIC", "setting": "Citrobacter diversus; C. diversus, 10 h cultivation at 37° C.", "result": 12.5, "unit": "µg/mL"}, {"measurement": "MIC", "setting": "Moraxella catarrhalis; M. catarrhalis, 10 h cultivation at 37° C.", "result": 50, "unit": "µg/mL"}, {"measurement": "MIC", "setting": "E. coli BL21; E. coli BL21, 10 h cultivation at 37° C.", "result": 25, "unit": "µg/mL"}, {"measurement": "MIC", "setting": "Aeromonas hydrophila; A. hydrophila, 10 h cultivation at 37° C.", "result": 50, "unit": "µg/mL"}, {"measurement": "MIC", "setting": "Proteus mirabilis; P. mirabilis, 10 h cultivation at 37° C.", "result": 25, "unit": "µg/mL"}]}, {"substance": "PRT1096 (QLNVCNSNPCLHGGNCEDIYSSYHCSCPLGWSGKHCE; listed as Homo sapiens)", "values": [{"measurement": "MIC E. cloacae", "setting": "Enterobacter cloacae; [1]", "result": 12.5, "unit": "µg/mL"}, {"measurement": "MIC", "setting": "E. coli DH5α", "result": 12.5, "unit": "µg/mL"}, {"measurement": "MIC K. pneumonia", "setting": "Klebsiella pneumonia; [1]", "result": 50, "unit": "µg/mL"}, {"measurement": "MIC P. aeruginosa", "setting": "Pseudomonas aeruginosa; [1]", "result": 50, "unit": "µg/mL"}, {"measurement": "MIC S. marcescens", "setting": "Serratia marcescens; [1]", "result": 25, "unit": "µg/mL"}, {"measurement": "MIC P. vulgaris", "setting": "Proteus vulgaris; [1]", "result": 12.5, "unit": "µg/mL"}, {"measurement": "MIC C. diversus", "setting": "Citrobacter diversus; [1]", "result": 50, "unit": "µg/mL"}, {"measurement": "MIC M. catarrhalis", "setting": "Moraxella catarrhalis; [1]", "result": 12.5, "unit": "µg/mL"}, {"measurement": "MIC E. coli BL21", "setting": "E. coli BL21; [1]", "result": 50, "unit": "µg/mL"}, {"measurement": "MIC A. hydrophila", "setting": "Aeromonas hydrophila; [1]", "result": 50, "unit": "µg/mL"}, {"measurement": "MIC P. mirabilis", "setting": "Proteus mirabilis; [1]", "result": 12.5, "unit": "µg/mL"}]}, {"substance": "PRT605 (CLCPDDPSSNQYFAHSCYQNLWSSDVICNCLQGYTGTQCGECSTGFYGNPRISGAPCQP; listed as Homo sapiens)", "values": [{"measurement": "MIC E. cloacae", "setting": "Enterobacter cloacae; [2]", "result": 12.5, "unit": "µg/mL"}, {"measurement": "MIC", "setting": "E. coli DH5α", "result": 12.5, "unit": "µg/mL"}, {"measurement": "MIC K. pneumonia", "setting": "Klebsiella pneumonia; [2]", "result": 25, "unit": "µg/mL"}, {"measurement": "MIC P. aeruginosa", "setting": "Pseudomonas aeruginosa; [2]", "result": 50, "unit": "µg/mL"}, {"measurement": "MIC S. marcescens", "setting": "Serratia marcescens; [2]", "result": 50, "unit": "µg/mL"}, {"measurement": "MIC P. vulgaris", "setting": "Proteus vulgaris; [2]", "result": 25, "unit": "µg/mL"}, {"measurement": "MIC C. diversus", "setting": "Citrobacter diversus; [2]", "result": 50, "unit": "µg/mL"}, {"measurement": "MIC M. catarrhalis", "setting": "Moraxella catarrhalis; [2]", "result": 25, "unit": "µg/mL"}, {"measurement": "MIC E. coli BL21", "setting": "E. coli BL21; [2]", "result": 25, "unit": "µg/mL"}, {"measurement": "MIC A. hydrophila", "setting": "Aeromonas hydrophila; [2]", "result": 25, "unit": "µg/mL"}, {"measurement": "MIC P. mirabilis", "setting": "Proteus mirabilis; [2]", "result": 12.5, "unit": "µg/mL"}]}, {"substance": "PRT1460 (CDCDTVGTRNGSILCDQIGGQCNCKRHVSGRQCNQCQNGFYNLQELDPDGCSP; listed as Homo sapiens)", "values": [{"measurement": "MIC against E. cloacae", "setting": "Enterobacter cloacae; Enterobacter cloacae, 5×10^5 CFU/mL, 10 h cultivation at 37° C.", "result": 25, "unit": "µg/mL"}, {"measurement": "MIC", "setting": "E. coli DH5α", "result": 12.5, "unit": "µg/mL"}, {"measurement": "MIC against K. pneumonia", "setting": "Klebsiella pneumonia; Klebsiella pneumonia, 5×10^5 CFU/mL, 10 h cultivation at 37° C.", "result": 50, "unit": "µg/mL"}, {"measurement": "MIC against P. aeruginosa", "setting": "Pseudomonas aeruginosa; Pseudomonas aeruginosa, 5×10^5 CFU/mL, 10 h cultivation at 37° C.", "result": 25, "unit": "µg/mL"}, {"measurement": "MIC against S. marcescens", "setting": "Serratia marcescens; Serratia marcescens, 5×10^5 CFU/mL, 10 h cultivation at 37° C.", "result": 50, "unit": "µg/mL"}, {"measurement": "MIC against P. vulgaris", "setting": "Proteus vulgaris; Proteus vulgaris, 5×10^5 CFU/mL, 10 h cultivation at 37° C.", "result": 25, "unit": "µg/mL"}, {"measurement": "MIC against C. diversus", "setting": "Citrobacter diversus; Citrobacter diversus, 5×10^5 CFU/mL, 10 h cultivation at 37° C.", "result": 25, "unit": "µg/mL"}, {"measurement": "MIC against M. catarrhalis", "setting": "Moraxella catarrhalis; Moraxella catarrhalis, 5×10^5 CFU/mL, 10 h cultivation at 37° C.", "result": 50, "unit": "µg/mL"}, {"measurement": "MIC against E. coli BL21", "setting": "E. coli BL21; E. coli BL21, 5×10^5 CFU/mL, 10 h cultivation at 37° C.", "result": 25, "unit": "µg/mL"}, {"measurement": "MIC against A. hydrophila", "setting": "Aeromonas hydrophila; Aeromonas hydrophila, 5×10^5 CFU/mL, 10 h cultivation at 37° C.", "result": 12.5, "unit": "µg/mL"}, {"measurement": "MIC against P. mirabilis", "setting": "Proteus mirabilis; Proteus mirabilis, 5×10^5 CFU/mL, 10 h cultivation at 37° C.", "result": 12.5, "unit": "µg/mL"}]}]}
